# Values joined by “and” are separate entries in the source; they are usually repeats but may differ in a detail not shown here. Identical values can stand only once. “Also recorded” adds a separate entry of the source.
# How the values were obtained:
# Meerschweinchenherzen = test: Working guinea pig heart, ischaemia/reperfusion with activated PMN and platelets (Versuchsgruppe 1); parameters: species or system Meerschweinchen; settings: for Herzleistung [% der initialen Leistung] / Interstitielles Volumen / Koronarfluß [% des Basalflusses]: flavone derivative 3*10^-5 M, individual hearts; for protektive Wirkung: ischaemic heart, Versuchsgruppe 1
# Description: Pathogene Wirkung von gleichzeitig aktivierten PMN und Thrombozyten im ischämischen Herzen. Als Studienobjekt dienten arbeitende, also Volumen gegen bestimmte Drucke auswerfende Meerschweinchenherzen. […] Thrombin, FMLP ([…]-Formyl-[…]) und […] Interaktion der Blutzellen mit dem koronaren Endothel bei diesen Versuchen. Tabelle 3: ^i Als Blutzellpräparate wurden eingesetzt: a) hochreine PMN (1-2*10^5/ml), […] Vorinkubation mit 100 μM […]) bzw. […] von PMN und TASS (bzw. T) in jeweils analogen Konzentrationen. Tabelle 3 gibt die unter […] bei […] von PMN und Thrombozyten (TASS = […] Vorinkubation mit 100μM […] = nicht […].
# venoläre Endothelzellen = test: Hydraulic conductivity (LP) across confluent venular endothelial cell layers on porous filters (Versuchsgruppe 2 / Beispiel 12); format: cell-based, Meerschweinchen
# Excerpt: Als Studienobjekt dienten bis zur Konfluenz etablierte Schichten venolärer Endothelzellen auf porösen Filtern, die in einer speziell entwickelten Apparatur zur Trennung zweier Flüssigkeitskompartimente eingesetzt wurden. So konnte z. B. der druckabhängige Wassertransport (hydraulische Konduktivität = LP mit der Dimension 10^-5 cm / s / cm H2O) über die gezüchteten Endothelschichten unter dem Einfluß von Blutzellen unter entzündlichen Bedingungen studiert werden.
# Details der Versuchsanordnung gehen aus den Abb. 1 und 2 hervor. Abbildung 1 zeigt ein wiederverwendbares, autoklavierbares Filterspannsystem bestehend aus (1) dem Formteil aus Polycarbonat, (2) dem Polycarbonatfilter, (3) dem stählernen Spannring und (4) dem Haltering aus Polycarbonat. Die Darstellung rechts neben dem Stapel der Einzelteile zeigt einen Querschnitt und eine Aufsicht des zusammengefügten Systems. Abbildung 2 zeigt eine Versuchsapparatur zur Messung hydraulischer Konduktivitäten von konfluenten Zellschichten, (1) Basisteil mit Magnetrührer (1a), (2) basales Flüssigkeitskompartiment mit Stopfen (2a) bzw. Zugang für Eppendorfpipetten (2b), (3) Steigrohr, (4) oberes Flüssigkeitskompartiment, zwischen den Flüssigkeitskompartimenten (2) und (4) liegt der ausgespannte Filter, (5), (6), (7) peristaltische Pumpen, (8) Vorratsgefäß für die Konstanthaltung des hydrostatischen Niveaus im oberen Flüssigkeitskompartiment, (9) Sammelgefäß für filtriertes Volumen.
# Der Nachweis der Wirkung von Verbindungen als Hemmstoffe der Kontraktilität von venolären Endothelzellen erfolgt analog zur in Versuchsgruppe 2 charakterisierten Vorgehensweise unter Verwendung der dort beschriebenen Versuchsanordnung (vgl. Abb. 1 und 2) und wird hier am Beispiel des Apigenins (chemische Formel siehe Tabelle 1) dargestellt.
# Venoläre Endothelzellen werden unter Verwendung einer speziellen, nachstehend beschriebenen Technik isoliert und auf porösen Polycarbonatfiltern (Porendurchmesser 0,4 µm, Fa. Nucleopore, Pleasanton, USA) unter Verwendung ebenfalls nachstehend beschriebener Zellkulturtechniken bis zur Konfluenz kultiviert. Diese endothelbeschichteten Filter werden in einer speziellen Apparatur (siehe Abb. 1 und 2) zur Trennung zweier Flüssigkeitskompartimente eingesetzt. Als Meßgröße für die Kontraktilität der venolären Endothelzellen dient der druckabhängige Wassertransport (hydraulische Konduktivität = LP mit der Dimension 10^-5 cm / s / cm H2O) über die gezüchteten Endothelschichten, der bei Kontraktion der Endothelzellen durch Übergang von der pflastersteinartigen zur sphärischen Form (vgl. Versuchsgruppe 3 mit Abb. 3 und 4) und die damit einhergehende Öffnung von Interzellularspalten zunimmt
# Eine Lösung von Plasmasalzen (=physiologische Salzlösung, Zusammensetzung siehe unten) mit Zusatz von 0,1% Albumin und von aus peripherem Blut wie nachfolgend beschrieben isolierten Granulozyten (=PMN, Konzentration 10^5/ml) und Thrombozyten (10^6/ml) wird mit 1 µM FMLP und 1 U/ml Thrombin versetzt. Durch Zentrifugieren (10 min bei 1000 g) wird der Überstand gewonnen und in das obere Flüssigkeitskompartiment der Versuchsapparatur eingebracht. Dadurch erhöht sich - als Ausdruck der Kontraktion der venoiären Endothelzellen - die hydraulische Konduktivität gegenüber dem Ausgangswert (Nr. 1 in Tabelle 4) um ca. 1600 % (Nr. 10 in Tabelle 4).
# Zur Dissoziation des Myokardgewebes werden zunächst mit Krebs-Henseleitlösung (KHL) nach Langendorff bei 120 mmHg 10 min perfundierte Meerschweinchenherzen 35 min lang mit einem in KHL angesetzten Proteasegemisch perfundiert (42 mg Kollagenase D + 60 mg Dispase II + 5 mg Trypsin + 58 mg Serumalbumin aus Rinderblut, gelöst in 42 ml Ca^2+-freier KHL; 1 ml/min; Kollagenase und Dispase: Boehringer, Mannheim, Trypsin: 1:250, Serva, Heidelberg). […]
# [1] = tested on: venolären Endothelzellen (VEC); test: Time-lapse video microscopy of venular endothelial cell layers, opening/sealing of intercellular gaps (Versuchsgruppe 3); format: cell-based; settings: for Abdichtung der Interzellularspalten: in presence of activated PMN and Thrombozyten (Abb. 3), 50 µM each
# Description: In vitro kultivierte Schichten aus venolären Endothelzellen (VEC) werden unter Einsatz von Zeitraffervideomikrokinematographie (siehe Abb. 5) mit speziell entwickelter Methodik direkt beobachtet. Die durch aktivierte Thrombozyten (Anwendung von 1 U/ml Thrombin) und aktivierte PMN (Anwendung von 1 µM FMLP) induzierte Öffnung von Endothelbarrieren (= Öffnung der Interzellularspalten der Endothelzellen) kann so im Zeitablauf dokumentiert werden. Als Beispiel dient eine Serie von Aufnahmen, die den direkten Angriff der Blutzellen dokumentiert (Abb. 3) bzw. eine analoge Serie, die mit dem Überstand der aktivierten Blutzellen durchgeführt wurde (Abb. 4).
# Die durch die Blutzellen zunächst geweiteten Interzellularspalten werden durch die Wirkstoffe wieder abgedichtet.
# Abbildung 5 zeigt den experimentellen Aufbau für die videomikroskopische Beobachtung zellulärer Interaktionen an Endotheloberflächen: A-Gewebekulturmikroskop, B-Spezialinkubator mit Steuereinheit C, D-Gaszylinder mit 5% CO2, E-Waschflasche, F-Videokamera, G-Kamera-Kontroll-Einheit, H-Videorecorder, I-Monitor, J-Fotoapparat.
# ischämische Herzschäden = settings: oral, initial 100 mg, then 20-40 mg/d; 17187 Patienten; cited from earlier work
# [2] = PMN+T (platelets not preincubated with Acetylsalicylsäure)
# [3] = PMN+TASS (platelets preincubated 1 h with 100 µM Acetylsalicylsäure, washed)
# [4] = FMLP-activated PMN alone (Nr. 4-6), 50 µM
# [5] = IPA + PMN (10^5/ml) + Thrombin (1 U/ml) + 1 µM FMLP, substance 50 µM, control without substance 5,40, baseline 1,80
# [6] = IPA + supernatant of thrombin-activated Thrombozyten (10^6/ml) and FMLP-activated PMN (10^5/ml), substance 50 µM, control without substance 31,2, baseline 1,80
molecule,measurement,setting,value
Catechin [reference compound],Herzleistung [% der initialen Leistung],Meerschweinchenherzen; [2],36 % der initialen Leistung and 39 % der initialen Leistung and 31 % der initialen Leistung and 26 % der initialen Leistung and 18 % der initialen Leistung
same,Interstitielles Volumen,Meerschweinchenherzen; [2],351 µL/g and 310 µL/g and 311 µL/g and 317 µL/g and 370 µL/g
same,Koronarfluß [% des Basalflusses],Meerschweinchenherzen; [2],37 % des Basalflusses and 27 % des Basalflusses and 34 % des Basalflusses and 17 % des Basalflusses and 14 % des Basalflusses and 28 % des Basalflusses
same,Herzleistung [% der initialen Leistung],Meerschweinchenherzen; [3],75 % der initialen Leistung and 68 % der initialen Leistung and 67 % der initialen Leistung and 81 % der initialen Leistung (2×) and 77 % der initialen Leistung
same,Interstitielles Volumen,Meerschweinchenherzen; [3],145 µL/g and 157 µL/g and 163 µL/g and 148 µL/g and 166 µL/g
same,Koronarfluß [% des Basalflusses],Meerschweinchenherzen; [3],88 % des Basalflusses and 78 % des Basalflusses and 82 % des Basalflusses and 79 % des Basalflusses and 85 % des Basalflusses
same,protektive Wirkung,Meerschweinchenherzen,keine protektive Wirkung
O=c1cc(-c2ccc(O)cc2)oc2cc(O)cc(O)c12 [Apigenin],Herzleistung [% der initialen Leistung],Meerschweinchenherzen; [2],52 % der initialen Leistung and 67 % der initialen Leistung and 74 % der initialen Leistung and 73 % der initialen Leistung and 64 % der initialen Leistung and 71 % der initialen Leistung
same,Interstitielles Volumen,Meerschweinchenherzen; [2],142 µL/g and 201 µL/g and 177 µL/g and 166 µL/g and 130 µL/g
same,Koronarfluß [% des Basalflusses],Meerschweinchenherzen; [2],56 % des Basalflusses (2×) and 49 % des Basalflusses and 53 % des Basalflusses and 59 % des Basalflusses and 65 % des Basalflusses
same,Herzleistung [% der initialen Leistung],Meerschweinchenherzen; [3],94 % der initialen Leistung and 96 % der initialen Leistung and 89 % der initialen Leistung and 88 % der initialen Leistung and 97 % der initialen Leistung
same,Interstitielles Volumen,Meerschweinchenherzen; [3],95 µL/g and 120 µL/g and 105 µL/g and 102 µL/g and 97 µL/g and 91 µL/g
same,Koronarfluß [% des Basalflusses],Meerschweinchenherzen; [3],102 % des Basalflusses and 107 % des Basalflusses and 98 % des Basalflusses and 95 % des Basalflusses and 91 % des Basalflusses and 109 % des Basalflusses
same,Verschlechterung der postischämischen Funktionsdaten (ΔP/Δt; interstitielles Volumen; Koronarfluß),Meerschweinchenherzen; acute application of the flavonoid alone,abgeschwächt
same,Verschlechterung der postischämischen Funktionsdaten (ΔP/Δt; interstitielles Volumen; Koronarfluß),Meerschweinchenherzen; flavonoid applied in combination with Acetylsalicylsäure,vollständig aufgehoben
same,Effect on increase of LP,venoläre Endothelzellen; [4],keine Erhöhung von LP
same,LP [10^-5 cm/s/cm H2O],venoläre Endothelzellen; [5],"1,75 ± 0,06 10^-5 cm/s/cm H2O"
same,LP [10^-5 cm/s/cm H2O],"venoläre Endothelzellen; IPA + PMN (10^5/ml) + Thrombozyten (10^6/ml) + Thrombin (1 U/ml) + 1 µM FMLP, each substance 50 µM, control without substance 33,7, baseline 1,80","25,5 ± 4,1 10^-5 cm/s/cm H2O"
same,LP [10^-5 cm/s/cm H2O],venoläre Endothelzellen; [6],"1,90 ± 0,07 10^-5 cm/s/cm H2O"
same,Effect on increase of LP,"venoläre Endothelzellen; simultaneously activated Thrombozyten and PMN (Nr. 7-9), 50 µM each",hemmt diesen Effekt nur schwach
same,Kontraktion der venolären Endothelzellen (hydraulische Konduktivität),"venoläre Endothelzellen; supernatant of activated PMN and Thrombozyten (Nr. 10, 11), 50 µM",fast vollständig gehemmt
"O=c1cc(-c2ccccc2)oc2ccccc12 [Flavon, reference compound]",Herzleistung [% der initialen Leistung],Meerschweinchenherzen; [2],31 % der initialen Leistung (2×) and 18 % der initialen Leistung and 35 % der initialen Leistung and 29 % der initialen Leistung
same,Interstitielles Volumen,Meerschweinchenherzen; [2],344 µL/g and 389 µL/g and 388 µL/g and 358 µL/g and 346 µL/g
same,Koronarfluß [% des Basalflusses],Meerschweinchenherzen; [2],33 % des Basalflusses and 19 % des Basalflusses and 31 % des Basalflusses and 28 % des Basalflusses and 29 % des Basalflusses
same,Herzleistung [% der initialen Leistung],Meerschweinchenherzen; [3],78 % der initialen Leistung and 81 % der initialen Leistung and 69 % der initialen Leistung and 82 % der initialen Leistung and 83 % der initialen Leistung
same,Interstitielles Volumen,Meerschweinchenherzen; [3],129 µL/g and 153 µL/g and 145 µL/g and 148 µL/g and 169 µL/g
same,Koronarfluß [% des Basalflusses],Meerschweinchenherzen; [3],88 % des Basalflusses and 77 % des Basalflusses and 73 % des Basalflusses and 81 % des Basalflusses and 87 % des Basalflusses
same,protektive Wirkung,Meerschweinchenherzen,keine protektive Wirkung
C[C@@H]1O[C@@H](OC[C@H]2O[C@@H](Oc3c(-c4ccc(OCCO)c(OCCO)c4)oc4cc(OCCO)cc(O)c4c3=O)[C@H](O)[C@@H](O)[C@@H]2O)[C@H](O)[C@H](O)[C@H]1O [Trihydroxyethylrutosid],Abdichtung der Interzellularspalten,[1],nicht zur Abdichtung der Interzellularspalten
same,Abdichtung der Spalten / Reparatur der Endothelschicht,"[1]; supernatant of activated PMN and Thrombozyten, blood cells absent (Abb. 4), without Acetylsalicylsäure",fast vollständige Reparatur der Endothelschicht; also recorded: Endothel-reparativen Effekt
"O=C1CCOc2ccccc21 [4-Chromanon, reference compound]",Herzleistung [% der initialen Leistung],Meerschweinchenherzen; [2],27 % der initialen Leistung and 29 % der initialen Leistung and 38 % der initialen Leistung and 31 % der initialen Leistung and 17 % der initialen Leistung and 22 % der initialen Leistung
same,Interstitielles Volumen,Meerschweinchenherzen; [2],373 µL/g and 348 µL/g and 354 µL/g and 318 µL/g and 356 µL/g
same,Koronarfluß [% des Basalflusses],Meerschweinchenherzen; [2],44 % des Basalflusses and 19 % des Basalflusses and 35 % des Basalflusses and 26 % des Basalflusses and 29 % des Basalflusses
same,Herzleistung [% der initialen Leistung],Meerschweinchenherzen; [3],79 % der initialen Leistung and 81 % der initialen Leistung and 74 % der initialen Leistung and 71 % der initialen Leistung and 69 % der initialen Leistung and 78 % der initialen Leistung
same,Interstitielles Volumen,Meerschweinchenherzen; [3],155 µL/g and 148 µL/g and 168 µL/g and 161 µL/g and 165 µL/g
same,Koronarfluß [% des Basalflusses],Meerschweinchenherzen; [3],88 % des Basalflusses and 74 % des Basalflusses and 79 % des Basalflusses (2×) and 81 % des Basalflusses and 82 % des Basalflusses
same,protektive Wirkung,Meerschweinchenherzen,keine protektive Wirkung
"CC(=O)Oc1ccccc1C(=O)O [Acetylsalicylsäure, reference compound]",Abdichtung der Interzellularspalten,[1],nicht zur Abdichtung der Interzellularspalten
same,Verschlechterung der postischämischen Funktionsdaten (ΔP/Δt; interstitielles Volumen; Koronarfluß),"Meerschweinchenherzen; platelets preincubated with 100 µM Acetylsalicylsäure, no flavonoid",lediglich teilweisen Abschwächung
same,ischämische Herzschäden,ischämische Herzschäden,signifikant
same,Effect on increase of LP,venoläre Endothelzellen; [4],keinen Effekt
same,LP [10^-5 cm/s/cm H2O],venoläre Endothelzellen; [5],"5,78 ±0,68 10^-5 cm/s/cm H2O"
same,LP [10^-5 cm/s/cm H2O],venoläre Endothelzellen; [6],"28,2 ± 1,7 10^-5 cm/s/cm H2O"
